What all share (experiment): in vitro antibacterial MIC, agar plate dilution
Holding throughout (type): cell-based

The test system of assay [1] is Acinetobacter calcoaceticus MOR 84-43. The settings on record: MOR8443, 18 hours, 35° C., read-out: MIC. Summed up: (§1)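 Agar plate dilution on Mueller-Hinton agar, inoculum approximately 10^4 CFU per organism applied with a Steers replicator. MIC (mcg/ml) is the lowest compound concentration inhibiting visible growth after 18 hours at 35° C.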
In assay [2] the test system is Citrobacter div. K 82-24. As to conditions: Citrobacter, DIV.K8224, 18 h, 35° C., read-out: MIC. The essentials:
as §1

Assay [3] concerns Enterobacter aerogenes VGH 84-36. As to conditions: Klebsiella aerogenes, VGH8436, 18 hours, 35° C., read-out: MIC. The essentials: as §1
Assay [4] relates to Enterobacter cloacae VGH 84-37. The settings on record: Enterobacter cloacae, VGH8437, 18 h, 35° C., read-out: MIC. The essentials: as §1
Assay [5] concerns Escherichia coli ATCC 25922. The settings on record: 35° C. Summed up:
as §1

Assay [6] relates to Escherichia coli CMC 84-16. As to conditions: Escherichia coli, CMC8416, 18 h, 35° C., read-out: MIC. The essentials: as §1
Assay [7] has as its system Escherichia coli MOR 84-20. As to conditions: Escherichia coli, MOR8420, 18 h, 35° C., read-out: MIC. Summed up: as §1
In assay [8] the test system is Escherichia coli NAR 311. The settings on record: NAR311, 18 hours, 35° C., read-out: MIC. Summed up: as §1
Assay [9] deals with Escherichia coli PRNT 311. As to conditions: PRNT311, 18 hours, 35° C., read-out: MIC. The essentials:
as §1

In assay [10] the test system is Klebsiella oxytoca MOR 84-28. As to conditions: MOR8428, 18 hours, 35° C. The essentials:
as §1

The subject of assay [11] is Klebsiella pneumoniae AD. As to conditions: Klebsiella pneumoniae, 18 h, 35° C., read-out: MIC. Summed up:
as §1

For assay [12], the system named is Klebsiella pneumoniae IO 83-5. The settings on record: Klebsiella pneumoniae, IO835, 18 h, 35° C., read-out: MIC. Summed up:
as §1

The subject of assay [13] is Klebsiella pneumoniae MOR 84-4. The settings on record: Klebsiella pneumoniae, MOR844, 18 h, 35° C., read-out: MIC. The essentials:
as §1

Assay [14] relates to Morganella morganii CMC 84-38. As to conditions: 35° C. Summed up: as §1
The test system of assay [15] is Morganella morganii VGH 84-11. The settings on record: VGH8411, 18 hours, 35° C., read-out: MIC. Summed up:
as §1

Assay [16] concerns Serratia marcescens F 0-35. The settings on record: Serratia marcescens, F035, 18 h, 35° C., read-out: MIC. Summed up:
as §1

For assay [17], the system named is Serratia marcescens IO 83-63. The settings on record: IO8363, 18 hours, 35° C. The essentials: as §1
The test system of assay [18] is Staphylococcus Spp saprophiticus VGH 84-50. The settings on record: 18 hours, 35° C., read-out: MIC. Summed up:
as §1

In assay [19] the test system is Staphylococcus aureus CMC 83-127. The settings on record: Staphylococcus aureus, CMC83127, 18 h, 35° C., read-out: MIC. Summed up: as §1
Assay [20] deals with Staphylococcus aureus CMC 83-128. The settings on record: CMC83128, 18 hours, 35° C., read-out: MIC. The essentials: as §1
Assay [21] has as its system Staphylococcus aureus CMC 83-131. As to conditions: Staphylococcus aureus, CMC83131, 18 h, 35° C., read-out: MIC. Summed up:
as §1

The test system of assay [22] is Staphylococcus aureus Smith. As to conditions: 35° C. The essentials: as §1
In assay [23] the test system is Staphylococcus aureus VGH 84-46. As to conditions: Staphylococcus aureus, VGH8446, 18 h, 35° C., read-out: MIC. The essentials: as §1
Assay [24] has as its system Staphylococcus epidermidis CMC 83-135. The settings on record: CMC83135, 18 hours, 35° C., read-out: MIC. The essentials:
as §1

For assay [25], the system named is Staphylococcus epidermidis IO 83-58. As to conditions: IO8358, 18 hours, 35° C., read-out: MIC. Summed up:
as §1

Assay [26] concerns Staphylococcus epidermidis VGH 84-40. As to conditions: VGH8440, 18 hours, 35° C., read-out: MIC. The essentials: as §1
The subject of assay [27] is Streptococcus faecalis ATTC 29212. As to conditions: Enterococcus faecalis, ATTC29212, 18 hours, 35° C., read-out: MIC. The essentials: as §1
In assay [28] the test system is Pseudomonas aeruginosa LL-1244. The settings on record: Pseudomonas aeruginosa, LL1244, 18 h, 35° C., read-out: MIC. Summed up: as §1
For assay [29], the system named is Streptococcus faecalis VGH 84-65. The settings on record: Enterococcus faecalis, VGH8465, 18 h, 35° C., read-out: MIC. The essentials:
as §1

Where [30] appears, read: Escherichia coli, ATCC25922, 18 h, read-out: MIC.
The mark [31] stands for this setting: Morganella morganii, CMC8438, 18 h, read-out: MIC.
[32] abbreviates: Staphylococcus aureus, 18 h, read-out: MIC.

≈ marks a conversion by molar mass, not a printed value. Where “and” joins values, the source holds several entries; their conditions need not be identical. Identical values can stand only once. Like-named read-outs stand apart in the source and are kept apart here.

With `O=C(O)c1cn(C2CC2)c2cc(N3CCNC(c4ccco4)C3)c(F)cc2c1=O` (stereo not shown) [Example 62, 1-Cyclopropyl-6-fluoro-7-[3-(2-furanvl)-1-piperazinyl]-1,4-dihydro-4-oxo-3-quinolinecarboxylic acid], the MIC (as a rule, the least concentration at which growth counts as inhibited) in assay [1] was 0.06 µg/mL (≈ 0.151 µM); in [2], 0.12 µg/mL (≈ 0.302 µM); in assay [3], 0.12 µg/mL (≈ 0.302 µM); in assay [4], 0.03 µg/mL (≈ 0.0755 µM); in assay [5] (18 hours) it was 0.03 µg/mL and 0.06 µg/mL; in assay [6], 0.03 µg/mL (≈ 0.0755 µM). The MIC in assay [7] came to 0.06 µg/mL (≈ 0.151 µM); in [8] it was 0.5 µg/mL (≈ 1.26 µM); in assay [9] it was 0.06 µg/mL (≈ 0.151 µM); in assay [10], 0.06 µg/mL (≈ 0.151 µM); in assay [11], 0.12 µg/mL (≈ 0.302 µM); in assay [12] it was 0.25 µg/mL (≈ 0.629 µM). For the same compound, the MIC in assay [13] is 0.12 µg/mL (≈ 0.302 µM); in assay [14] (18 hours), 0.25 µg/mL (≈ 0.629 µM); in [15], 0.06 µg/mL (≈ 0.151 µM); in [16], 0.06 µg/mL (≈ 0.151 µM); in assay [17], 1 µg/mL (≈ 2.52 µM); in assay [18], 0.12 µg/mL (≈ 0.302 µM). Moreover, the MIC in assay [19] was 0.008 µg/mL (≈ 0.0201 µM); in assay [20], 0.03 µg/mL (≈ 0.0755 µM); in assay [21] it was 0.25 µg/mL (≈ 0.629 µM); in assay [22] (18 hours) it was 0.015 µg/mL (≈ 0.0377 µM); in [23] it was 0.015 µg/mL (≈ 0.0377 µM); in assay [24], 0.03 µg/mL (≈ 0.0755 µM). The minimal inhibitory concentration (MIC) in [25] came to 0.015 µg/mL (≈ 0.0377 µM); in assay [26], 0.03 µg/mL (≈ 0.0755 µM); in assay [27], 0.25 µg/mL (≈ 0.629 µM).

In the case of `O=C(O)c1cn(C2CC2)c2cc(N3CCNC(c4ccoc4)C3)c(F)cc2c1=O` (stereo not shown) [Example 92], the minimum inhibitory concentration (MIC) in assay [2] was 0.06 µg/mL (≈ 0.151 µM); in [5] (18 hours), 0.12 µg/mL (≈ 0.302 µM); in [5] (setting [30]), 0.06 µg/mL (≈ 0.151 µM); in [7], 0.06 µg/mL (≈ 0.151 µM); in assay [12], 0.25 µg/mL (≈ 0.629 µM); in [14] (setting [31]), 0.25 µg/mL (≈ 0.629 µM). In addition, the MIC in [28] is 2 µg/mL (≈ 5.03 µM); in assay [17], 1 µg/mL (≈ 2.52 µM); in [22] (setting [32]) it was 0.03 µg/mL (≈ 0.0755 µM); in assay [29], 0.5 µg/mL (≈ 1.26 µM).

As to `CCn1cc(C(=O)O)c(=O)c2cc(F)c(N3CCNC(c4ccncc4)C3)cc21` (stereo not shown) [Example 123], the minimum inhibitory concentration (MIC) in [2] stood at 4 µg/mL (≈ 10.1 µM); in [5] (setting [30]), 1 µg/mL (≈ 2.52 µM); in assay [7], 2 µg/mL (≈ 5.05 µM); in [12], 8 µg/mL (≈ 20.2 µM); in [14] (setting [31]) it was 2 µg/mL (≈ 5.05 µM); in [28], 64 µg/mL (≈ 161 µM). Also, the MIC in assay [21] was determined as 2 µg/mL (≈ 5.05 µM); in assay [22] (setting [32]) it was 0.5 µg/mL (≈ 1.26 µM); in [29], 8 µg/mL (≈ 20.2 µM).

For `CCn1cc(C(=O)O)c(=O)c2cc(F)c(N3CCN(C)C(c4ccnn4C)C3)cc21` (stereo not shown) [Example 110, 1-Ethyl-6-fluoro-1,4-dihydro-7-[4-methyl-3-(1-methyl-1H-pyrazol-5-yl) -1-piperazinyl]-4-oxo-3-quinolinecarboxylic acid], the MIC in assay [2] was found to be 8 µg/mL (≈ 19.3 µM); in assay [5] (setting [30]), 1 µg/mL (≈ 2.42 µM); in [7] it was 4 µg/mL (≈ 9.67 µM); in [12], 16 µg/mL (≈ 38.7 µM); in assay [14] (setting [31]) it was 8 µg/mL (≈ 19.3 µM); in [28], 128 µg/mL (≈ 310 µM). The MIC was > 16 µg/mL in [17], 2 µg/mL (≈ 4.84 µM) in [21], 0.25 µg/mL (≈ 0.605 µM) in assay [22] (setting [32]) and 8 µg/mL (≈ 19.3 µM) in assay [29].

`CCn1cc(C(=O)O)c(=O)c2cc(F)c(N3CCNC(c4cccnc4)C3)cc21` (stereo not shown) [Example 122]: the MIC in assay [2] was found to be 2 µg/mL (≈ 5.05 µM); in [7], 1 µg/mL (≈ 2.52 µM); in assay [12], 2 µg/mL (≈ 5.05 µM); in [14] (setting [31]), 1 µg/mL (≈ 2.52 µM); in assay [28], 32 µg/mL (≈ 80.7 µM); in assay [21], 8 µg/mL (≈ 20.2 µM). The MIC in [22] (setting [32]) was found to be 0.12 µg/mL (≈ 0.303 µM); in assay [29] it was 8 µg/mL (≈ 20.2 µM).

The record behind these values is patent publication US5210193A, “Piperazine derivatives” (American Cyanamid Company, priority 1990, dated 1993).
